Source: patent publication US7897340B2, “Use of tumor susceptibilty gene 101 (TSG 101) as a prognostic and diagnostic marker” (The Board of Regents of the University of Texas System, priority 2006, dated 2011)

Columns and labels:
Format in all cases: cell-based, human
[1] = test system: SKOV-3 cells; experiment: Nuclear DNA condensation staining (Hoechst); conditions: SKOV-3, day 5 following siRNA transfection
Description: 2-3×10^5 SKOV-3 cells were plated in 3 cm tissue culture plates containing polylysine coated coverslips, and transfected with either control or TSG101 siRNA. Cells on coverslips were stained 5 days post-transfection with Hoechst 22658 for 30 min, rinsed with PBS, and sealed onto glass slides. Nuclear DNA condensation was examined using a fluorescence microscope (Olympus BX51) equipped with a Hamamatsu digital camera (C4742-95).

[2] = test system: CITED2; experiment: CITED2 protein by immunoblotting in SKOV-3 cells; conditions: SKOV-3, immunoblotting
Text: Antigen-antibody complexes were detected by enhanced chemiluminescence (Pierce).
(§1) A siRNA duplex specific for TSG101 (targeting TSG101 coding sequence 413-433) and a scrambled random control siRNA with matching GC content were obtained from Dharmacon. This specific TSG101 siRNA duplex (sense: CCUCCAGUCUUCUCUCGUCdTdT (SEQ ID NO: 7) and antisense: dTd[…] (SEQ ID NO: 8) have been successfully applied to suppress the expression of endogenous TSG101 in several high quality studies (Amit et al., 2004; Garrus et al., 2001; Hewitt et al., 2002; Ismaili et al., 2005). Transfection of the siRNAs was according to the manufacturer's instructions using Lipofectamine 2000 (Invitrogen).

[3] = test system: SKOV-3 cells; experiment: Flow cytometry cell cycle analysis (propidium iodide)
Description: SKOV-3 cells transfected with either TSG101 or control siRNA were grown and harvested 4 and 6 days after transfection. 1×10^6 cells were trypsinized from 10 cm plates and transferred to FACS tubes, washed twice with PBS, and then fixed with 70% ethanol for 2 h on ice. Ethanol was removed by centrifugation and cells were rehydrated in PBS at room temperature for 5 min. Cells were centrifuged to remove PBS and stained with 1 ml of propidium iodide staining solution (0.1% Triton X-100, 0.2 mg/ml RNAase A, 0.05 mg/ml propidium iodide, prepared fresh) for 1 h at room temperature. Cellular DNA content was then determined on a Becton-Dickinson FACS-Scan apparatus.

[4] = test system: p21; experiment: p21 protein by immunoblotting in SKOV-3 cells; conditions: SKOV-3, after 4 days following siRNA transfection
Description: (§2) Cells transfected with either control or TSG101 siRNA were passaged and subsequently harvested on the appropriate days by trypsinizing cells, washing pelleted cells in PBS and then lysing cells in SDS lysis buffer. Protein concentration of cell lysates was assayed with the Bio-Rad protein assay reagent. […] Immunoblots were developed by enhanced chemiluminescence (Pierce, Rockford, Ill.).

[5] = test system: TSG101; experiment: TSG101 expression after siRNA by semiquantitative PCR and immunoblotting in SKOV-3 cells; conditions: SKOV-3, semi-quantitative PCR and immunoblotting
Text: as §1
(§3) Total RNA was isolated from cells using Trizol reagent (Invitrogen), and concentration was determined by absorbance at 260 nm. Semiquantitative RT-PCR was carried out using 1 μg of isolated total RNA. Primers used for RT-PCR were TSG101 forward 5′-[…]-3′ (SEQ ID NO: 1), reverse 5′-[…]-3′ (SEQ ID NO:2), p21 forward 5′-[…]-3′ (SEQ ID NO: 9), reverse 5′-CCGTTTTCGACCCTGAGAG-3′ (SEQ ID NO:10).
as §2

[6] = test system: TSG101 recruitment to the p21 promoter; experiment: Chromatin immunoprecipitation (ChIP) assay with TSG101 antibody; conditions: SKOV-3, ChIP with TSG101 antibody, vs control siRNA
Text: Pelleted DNA was resuspended in TBE. […] ID NO: 11), reverse [NT] ID NO:12).

[7] = test system: SKOV-3 cells; experiment: Cell viability MTT assay; conditions: SKOV-3, days 3 to 7 post transfection, vs scrambled control siRNA
Text: as §1
SKOV-3 cells were trypsinized 48 hrs post-transfection with siRNAs and plated at 2×10^3 cells/well in 96 well plates, with 5 wells for each treatment. On subsequent days (days 3 to 7), media was removed and 100 μl/well fresh media was added along with 10 μl of 3-(4,5-dimethylthiazol-2-yl)-2,5-diphenyl tetrazolium bromide (MTT) to a final concentration of 500 μg/ml. Cells were incubated for 3 hrs at 37° C., and then lysed by adding 200 μl/well DMSO and incubating at 37° C. for 1 hr. Cell viability was measured by reduction of MTT, which registered absorbance at 595 nm on a Molecular Devices microplate reader.

[8] = test system: SKOV-3 cells; experiment: Cell growth by counting
Description: FIGS. 11A-F show association of suppression of TSG101 expression with cell cycle arrest and growth inhibition. In FIG. 11A, SKOV-3 cells were transfected with TSG101 and control siRNAs and RNA and protein were isolated 48 hours post transfection. Levels of mRNA were determined by semiquantitative RT-PCR and protein levels were determined by immunoblotting, respectively. Similar results were obtained from more than 4 independent experiments. In FIG. 11B, TSG101 or control siRNA transfected cells were plated at 2.5×10^4 cells/well in 6 well plates and cell growth was determined by counting over successive days. Each data point represents the average of 3 wells. Control and TSG101 knockdown SKOV-3 cells were stained with propidium iodide and analyzed by FACS on day 4 (FIG. 11C) or day 6 (FIG. 11D) following transfection. Sub G1 cells are calculated as a supplemental population. In FIG. 11E, SKOV-3 cell lysates were obtained 6 days following transfection with control or TSG101 siRNA. Caspase activity was determined using the fluorogenic substrate DEVD-AFC. In FIG. 11F, control and TSG101 knockdown SKOV-3 cells on day 5 following siRNA transfection were stained using Hoechst 22658 and Nuclear condensation was observed on a fluorescent microscope. Cells with condensed/fragmented DNA were quantified from at least 8 images, and represented as a percentage of the total number of cells. […]

[9] = test system: p21 mRNA; experiment: p21 mRNA by RT-PCR in SKOV-3 cells; conditions: SKOV-3, after 4 days following siRNA transfection
Description: as §3

With “TSG101 siRNA: siRNA duplex from Dharmacon targeting TSG101 coding sequence 413-433, SEQ ID NO: 7 and 8 (chain 1 CCUCCAGUCUUCUCUCGUCTT; chain 2 TTGGAGGUCAGAAGAGAGCAG; chemistry not fully specified; one strand is listed 3' to 5')” the “nuclear DNA condensation/fragmentation” value [1] was “apparent increases”, the “cellular levels of CITED2 protein” value [2] was “significantly reduced” and the “cellular DNA content vs control siRNA” value ([3]; SKOV-3, day 4) was “very similar”. For the same substance, the “sub-G1 apoptotic cell debris” value ([3]; SKOV-3, day 4) was “not seen”, the G1/G0 phase cells ([3]; SKOV-3, day 6) was “decrease” and the “number of cells in G2/M phase” value ([3]; SKOV-3, day 6) was “significant increase”. The “sub-G1 apoptotic cell debris” value ([3]; SKOV-3, day 6) was “significant population”, the p21 protein level [4] was “significantly upregulated” and the “TSG101 expression (mRNA and protein)” value [5] was “Suppression of TSG101 expression was confirmed”. The “recruitment of TSG101 to the p21 promoter” value [6] was “dramatically reduced”, the “cell viability (MTT)” value [7] was “decrease dramatically in number beginning 5 days post transfection” and the “cell number (cell growth)” value ([8]; SKOV-3, counting over successive days, vs scrambled control siRNA) was “decrease dramatically in number beginning 5 days post transfection”. The “rate of cell growth, initial observations” value ([8]; SKOV-3, up to 72 h posttransfection) was “no significant cellular effects on cell growth” and the “p21 messenger RNA level” value [9] was “significantly upregulated”.
